{
  "source": "patent US8697081B2",
  "about": "“Method of modulating neovascularization” (The Regents of the University of Michigan, priority 2008, dated 2014)",
  "tested_on": "human endothelial cells",
  "test": "Cell morphology, migration and cell number of endothelial cells in 3-D fibrin gel",
  "format": "cell-based",
  "conditions": "2 days, 50 μM blebbistatin",
  "description": "Endothelial cells were isolated from human umbilical cord veins by collagenase digestion and cultured in Medium 199 (Gibco) containing 20% human serum, 50 μg/ml endothelial cell growth supplement (BD Biosciences), 100 U/ml penicillin, and 100 μg/ml streptomycin (Hiraoka et al. 1998. Cell, 95(3): 365-377). […]\nThe effect of Fn matrix assembly, or lack thereof, on endothelial cell function during neovascularization was assessed. […]\n(Chernousov et al. 1991. J. Biol. Chem., 266(17): 10851-10858; Tomasini-Johansson et al. 2001. J. Biol. Chem., 276(26): 23430-23439; Mao and Schwarzbauer. 2005. Matrix Biol., 24(6): 389-399; and Tomasini-Johansson et al. 2006. Matrix Biol., 25(5): 282-293). […] Cell number in 3-D cultures was determined by hemacytometry after dissolving gels with 2 mg/ml bacterial collagenase (Worthington) while the number of patent tubules was determined in randomly selected cross-sections. Fn matrix assembly and cell morphology were monitored by confocal laser microscopy. To examine cell migration, endothelial cells were embedded in a 100 μl fibrin gel for 2 hours, then placed within a 500 μl gel for 8 days in the presence of Del29, FUD, control IgG, or L8, after which migration from the inner gel was assessed. […]",
  "data": [
    {"molecule": "Cc1ccc2c(c1)C(=O)C1(O)CCN(c3ccccc3)C1=N2", "note": "(stereo not shown) [blebbistatin]", "values": [
      {"measurement": "cell shape change", "result": "failed to undergo"}
    ]}
  ]
}
